Data set [1] can be described thus: Solubility of the compound in PBS buffer at pH 7. Type of data set: physicochemical.
A short description of data set [2]: Solubility of the compound in water by HPLC analysis. Type of data set: physicochemical.

The term solubility denotes the concentration that dissolves in the medium under given conditions. As for `O=S(=O)(O)O.S=C(NCc1ccc2c(c1)OCO2)N1CCN(c2ncnc3c2oc2ccccc23)CC1`, the solubility came out at 1.7 µg/mL in data set [1] and 3.3 µg/mL in data set [2].
Compound `Cc1ccc(S(=O)(=O)O)cc1.S=C(NCc1ccc2c(c1)OCO2)N1CCN(c2ncnc3c2oc2ccccc23)CC1` showed a solubility in data set [2] of 1.87 µg/mL.
With `O=S(=O)(O)c1ccccc1.S=C(NCc1ccc2c(c1)OCO2)N1CCN(c2ncnc3c2oc2ccccc23)CC1`, in data set [2], the solubility is 4.26 µg/mL.
Consider `CS(=O)(=O)O.S=C(NCc1ccc2c(c1)OCO2)N1CCN(c2ncnc3c2oc2ccccc23)CC1`, for which the solubility was found to be 2.16 µg/mL in data set [1] and 5.96 µg/mL in data set [2].

The values above are taken from ChEMBL document CHEMBL3991943, “Pharmaceutical formulations comprising salts of a protein kinase inhibitor and methods of using same” (2013).
